Measurements as given in patent US6737383B1, “Herbicidal oxadiazolidines” (priority 1999, dated 2004).

Columns and labels:
corn = test: Test B pre/postemergence corn; format: in vivo, Zea mays
Method in brief: (§1)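 Response is a visual 0-to-10 score relative to untreated plants, where 0 means no effect and 10 means complete control, taken twelve to sixteen days after application. Treatments went onto soil at planting and onto foliage of 1- to 4-leaf plants, using a surfactant-containing non-phytotoxic solvent.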

rape = test: Test B pre/postemergence rape; format: in vivo, Brassica napus
Method in brief: as §1

morningglory = test: Test B pre/postemergence morningglory; format: in vivo, Ipomoea hederacea
Method in brief: as §1

sugar beet = test: Test B pre/postemergence sugar beet; format: in vivo, Beta vulgaris
Method in brief: as §1

cocklebur = test: Test B pre/postemergence cocklebur; format: in vivo, Xanthium strumarium
Method in brief: as §1

giant foxtail = test: Test B pre/postemergence giant foxtail; format: in vivo, Setaria faberii
Method in brief: as §1

wild oat = test: Test B pre/postemergence wild oat; format: in vivo, Avena fatua
Method in brief: as §1

surinam grass = test: Test B pre/postemergence surinam grass; format: in vivo, Brachiaria decumbens
Method in brief: as §1

blackgrass = test: Test B pre/postemergence blackgrass; format: in vivo, Alopecurus myosuroides
Method in brief: as §1

crabgrass = test: Test B pre/postemergence crabgrass; format: in vivo, Digitaria sanguinalis
Method in brief: as §1

purple nutsedge = test: Test B pre/postemergence purple nutsedge; format: in vivo, Cyperus rotundus
Method in brief: as §1

duck salad = test: Test B flood test duck salad; format: in vivo, Heteranthera limosa
Method in brief: (§2)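 Read-out is a visual response score from 0 (no effect) to 10 (complete control), assigned by comparison with untreated controls. Treatment was applied at the 2-leaf stage, and plants stayed in the greenhouse for twelve to sixteen days before scoring.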

smallflower flatsedge = test: Test B flood test smallflower flatsedge; format: in vivo, Cyperus difformis
Method in brief: as §2

bamyardgrass = test: Test B flood test barnyardgrass; format: in vivo, Echinochloa crus-galli
Method in brief: as §2

bedstraw = test: Test B pre/postemergence bedstraw; format: in vivo, Galium aparine
Method in brief: as §1

soybean = test: Test B pre/postemergence soybean; format: in vivo, Glycine max
Method in brief: as §1

rice = test: Test B flood test rice; format: in vivo, Oryza sativa
Method in brief: as §2

wheat = test: Test B pre/postemergence wheat; format: in vivo, Triticum aestivum
Method in brief: as §1

pigweed = test: Test B pre/postemergence pigweed; format: in vivo, Amaranthus retroflexus
Method in brief: as §1

velvetleaf = test: Test B pre/postemergence velvetleaf; format: in vivo, Abutilon theophrasti
Method in brief: as §1

[1] = Preemergence, Rate 62 g/ha, scale of 0 to 10 where 0 is no effect and 10 is complete control
[2] = Preemergence, Rate 250 g/ha, scale of 0 to 10 where 0 is no effect and 10 is complete control
[3] = Preemergence, Rate 500 g/ha, scale of 0 to 10 where 0 is no effect and 10 is complete control
[4] = Rate 62 g/ha, Postemergence, scale of 0 to 10 where 0 is no effect and 10 is complete control
[5] = Rate 125 g/ha, Postemergence, scale 0 to 10
[6] = Rate 125 g/ha, Preemergence, scale of 0 to 10 where 0 is no effect and 10 is complete control
[7] = Rate 500 g/ha, Postemergence, scale 0 to 10, 0 no effect, 10 complete control
[8] = Rate 62 g/ha, headed Pre-emergence (flood test species), scale 0 to 10 (0 no effect, 10 complete control)
[9] = Rate 125 g/ha, Pre-emergence, flood test species, scale 0 to 10 where 0 is no effect and 10 is complete control
[10] = Rate 250 g/ha, Pre-emergence, flood-test species, scale 0 to 10, 0 is no effect, 10 is complete control
[11] = Rate 500 g/ha, Pre-emergence, flood test species, scale 0 to 10 (0 no effect, 10 complete control)

`CC(C)N(C(=O)n1oc(=O)n(CCC2CCCCC2)c1=O)c1ccc(F)cc1` [Compound 257] was tested, and the “Corn plant response rating” value (corn; [1]) was 0, the “Corn plant response rating” value (corn; [2]) was 0 and the “Plant response rating, Corn” value (corn; [3]) was 0. The “Corn plant response rating” value (corn; [4]) was 0, the “Corn plant response rating” value (corn; [5]) was 0 and the “Corn plant response rating” value (corn; [6]) was 0. For the same compound, the “Plant response rating (0 to 10; 0 is no effect, 10 is complete control), Corn” value (corn; Rate 250 g/ha, Postemergence) was 0, the “Corn plant response rating” value (corn; [7]) was 0 and the “Rape plant response rating” value (rape; [1]) was 0. The “Rape plant response rating” value (rape; [2]) was 0, the “Plant response rating, Rape” value (rape; [3]) was 0 and the “Rape plant response rating” value (rape; [6]) was 0. The “Plant response rating (0 to 10; 0 is no effect, 10 is complete control), Rape” value (rape; Rate 250 g/ha, Postemergence) was 2, the “Rape plant response rating” value (rape; [7]) was 5 and the “Morningglory plant response rating” value (morningglory; [1]) was 0. The “Morningglory plant response rating” value (morningglory; [2]) was 2, the “Plant response rating, Morningglory” value (morningglory; [3]) was 4 and the “Morningglory plant response rating” value (morningglory; [6]) was 0. For the same compound, the “Plant response rating (0 to 10; 0 is no effect, 10 is complete control), Morningglory” value (morningglory; Rate 250 g/ha, Postemergence) was 8, the “Morningglory plant response rating” value (morningglory; [7]) was 8 and the “Sugarbeets plant response rating” value (sugar beet; [1]) was 0. The “Sugarbeets plant response rating” value (sugar beet; [2]) was 0, the “Plant response rating, Sugarbeets” value (sugar beet; [3]) was 0 and the “Sugarbeets plant response rating” value (sugar beet; [6]) was 0. The “Sugarbeets plant response rating” value (sugar beet; [7]) was 5, the “Cocklebur plant response rating” value (cocklebur; [1]) was 0 and the “Cocklebur plant response rating” value (cocklebur; [2]) was 0. For the same compound, the “Plant response rating, Cocklebur” value (cocklebur; [3]) was 0, the “Cocklebur plant response rating” value (cocklebur; [4]) was 0 and the “Cocklebur plant response rating” value (cocklebur; [5]) was 0. For the same compound, the “Cocklebur plant response rating” value (cocklebur; [6]) was 0, the “Plant response rating (0 to 10; 0 is no effect, 10 is complete control), Cocklebur” value (cocklebur; Rate 250 g/ha, Postemergence) was 0 and the “Cocklebur plant response rating” value (cocklebur; [7]) was 0. The “Giant foxtail plant response rating” value (giant foxtail; [1]) was 3, the “Giant foxtail plant response rating” value (giant foxtail; [2]) was 6 and the “Plant response rating, Giant foxtail” value (giant foxtail; [3]) was 9. The “Giant foxtail plant response rating” value (giant foxtail; [6]) was 6, the “Plant response rating (0 to 10; 0 is no effect, 10 is complete control), Giant foxtail” value (giant foxtail; Rate 250 g/ha, Postemergence) was 0 and the “Giant foxtail plant response rating” value (giant foxtail; [7]) was 2. For the same compound, the “Wild oats plant response rating” value (wild oat; [1]) was 0, the “Wild oats plant response rating” value (wild oat; [2]) was 0 and the “Plant response rating, Wild oats” value (wild oat; [3]) was 4. The “Wild oats plant response rating” value (wild oat; [6]) was 0, the “Wild oats plant response rating” value (wild oat; [7]) was 0 and the “B. signalgrass plant response rating” value (surinam grass; [1]) was 0. The “B. signalgrass plant response rating” value (surinam grass; [2]) was 0, the “Plant response rating, B. signalgrass” value (surinam grass; [3]) was 3 and the “B. signalgrass plant response rating” value (surinam grass; [4]) was 0. For the same compound, the “B. signalgrass plant response rating” value (surinam grass; Rate 125 g/ha, Postemergence, scale 0 (no effect) to 10 (complete control)) was 0, the “B. signalgrass plant response rating” value (surinam grass; [6]) was 0 and the “Plant response rating (0 to 10; 0 is no effect, 10 is complete control), B. signalgrass” value (surinam grass; Rate 250 g/ha, Postemergence) was 0. For the same compound, the “B. signalgrass plant response rating” value (surinam grass; [7]) was 0, the “Blackgrass plant response rating” value (blackgrass; [1]) was 0 and the “Blackgrass plant response rating” value (blackgrass; [2]) was 0. The “Plant response rating, Blackgrass” value (blackgrass; [3]) was 0, the “Blackgrass plant response rating” value (blackgrass; [4]) was 0 and the “Blackgrass plant response rating” value (blackgrass; [5]) was 0. The “Blackgrass plant response rating” value (blackgrass; [6]) was 0, the “Plant response rating (0 to 10; 0 is no effect, 10 is complete control), Blackgrass” value (blackgrass; Rate 250 g/ha, Postemergence) was 1 and the “Blackgrass plant response rating” value (blackgrass; [7]) was 2. For the same compound, the “Crabgrass plant response rating” value (crabgrass; [1]) was 0, the “Crabgrass plant response rating” value (crabgrass; [2]) was 2 and the “Plant response rating, Crabgrass” value (crabgrass; [3]) was 5. The “Crabgrass plant response rating” value (crabgrass; [6]) was 2, the “Plant response rating (0 to 10; 0 is no effect, 10 is complete control), Crabgrass” value (crabgrass; Rate 250 g/ha, Postemergence) was 2 and the “Crabgrass plant response rating” value (crabgrass; [7]) was 4. The “Nutsedge plant response rating” value (purple nutsedge; [2]) was 0, the “Plant response rating, Nutsedge” value (purple nutsedge; [3]) was 0 and the “Nutsedge plant response rating” value (purple nutsedge; [6]) was 0. For the same compound, the “Plant response rating (0 to 10; 0 is no effect, 10 is complete control), Nutsedge” value (purple nutsedge; Rate 250 g/ha, Postemergence) was 0, the “Nutsedge plant response rating” value (purple nutsedge; [7]) was 0 and the “Ducksalad plant response rating” value (duck salad; [8]) was 0. For the same compound, the “Ducksalad plant response rating” value (duck salad; [9]) was 0, the “Ducksalad plant response rating” value (duck salad; [10]) was 0 and the “Ducksalad plant response rating” value (duck salad; [11]) was 0. The “S. Flatsedge plant response rating” value (smallflower flatsedge; [8]) was 0, the “S. Flatsedge plant response rating” value (smallflower flatsedge; [9]) was 0 and the “S. Flatsedge plant response rating” value (smallflower flatsedge; [10]) was 0. For the same compound, the “S. Flatsedge plant response rating” value (smallflower flatsedge; [11]) was 0, the “Barnyardgrass plant response rating” value (bamyardgrass; [8]) was 0 and the “Barnyardgrass plant response rating” value (bamyardgrass; [9]) was 0. The “Barnyardgrass plant response rating” value (bamyardgrass; [10]) was 0, the “Barnyardgrass plant response rating” value (bamyardgrass; [11]) was 0 and the “Bedstraw plant response rating” value (bedstraw; [1]) was 0. For the same compound, the “Bedstraw plant response rating” value (bedstraw; [2]) was 0, the “Plant response rating, Bedstraw” value (bedstraw; [3]) was 0 and the “Bedstraw plant response rating” value (bedstraw; [4]) was 0. The “Bedstraw plant response rating” value (bedstraw; [5]) was 0, the “Bedstraw plant response rating” value (bedstraw; [6]) was 0 and the “Plant response rating (0 to 10; 0 is no effect, 10 is complete control), Bedstraw” value (bedstraw; Rate 250 g/ha, Postemergence) was 0. For the same compound, the “Bedstraw plant response rating” value (bedstraw; [7]) was 0, the “Soybean plant response rating” value (soybean; [1]) was 0 and the “Soybean plant response rating” value (soybean; [2]) was 0. The “Plant response rating, Soybean” value (soybean; [3]) was 0, the “Soybean plant response rating” value (soybean; [6]) was 0 and the “Soybean plant response rating” value (soybean; [7]) was 4. For the same compound, the “Rice plant response rating” value (rice; [8]) was 0, the “Rice plant response rating” value (rice; [9]) was 0 and the “Rice plant response rating” value (rice; [10]) was 0. The “Rice plant response rating” value (rice; [11]) was 0, the “Wheat plant response rating” value (wheat; [1]) was 0 and the “Wheat plant response rating” value (wheat; [2]) was 0. The “Plant response rating, Wheat” value (wheat; [3]) was 4, the “Wheat plant response rating” value (wheat; [6]) was 0 and the “Wheat plant response rating” value (wheat; [7]) was 0. For the same compound, the “Redroot pigweed plant response rating” value (pigweed; [1]) was 0, the “Redroot pigweed plant response rating” value (pigweed; [2]) was 0 and the “Plant response rating, Redroot pigweed” value (pigweed; [3]) was 4. The “Redroot pigweed plant response rating” value (pigweed; [6]) was 0, the “Plant response rating (0 to 10; 0 is no effect, 10 is complete control), Redroot pigweed” value (pigweed; Rate 250 g/ha, Postemergence) was 4 and the “Redroot pigweed plant response rating” value (pigweed; [7]) was 6. The “Velvetleaf plant response rating” value (velvetleaf; [1]) was 0, the “Velvetleaf plant response rating” value (velvetleaf; [2]) was 0 and the “Plant response rating, Velvetleaf” value (velvetleaf; [3]) was 0. For the same compound, the “Velvetleaf plant response rating” value (velvetleaf; [6]) was 0 and the “Velvetleaf plant response rating” value (velvetleaf; [7]) was 1.
